These are literature values, as cited in patent US10021900B2, “Carbohydrate composition and food and beverage producing gradual rise in blood glucose levels” (MATSUTANI CHEMICAL INDUSTRY CO., LTD., priority 2011, dated 2018).

For the data set the following is noted: 10% by mass aqueous solution.

In the case of `OC[C@H]1O[C@H](OC[C@H]2OC(O)(CO)[C@@H](O)[C@@H]2O)[C@H](O)[C@@H](O)[C@@H]1O` (stereo partly shown) [isomaltulose], the osmotic pressure result is listed as “about 340 mOSMOL/kg”.
